Ends that are not written are not given here.
Legend:
[1] = target: T1, recombinant receptor human IL-10Ra protein (Homo sapiens, UniProt Q13651); experiment: Biolayer interferometry kinetic assay, binding to IL-10Ra; details: read-out: ka (association constant)
T1 sequence (Q13651 22-578): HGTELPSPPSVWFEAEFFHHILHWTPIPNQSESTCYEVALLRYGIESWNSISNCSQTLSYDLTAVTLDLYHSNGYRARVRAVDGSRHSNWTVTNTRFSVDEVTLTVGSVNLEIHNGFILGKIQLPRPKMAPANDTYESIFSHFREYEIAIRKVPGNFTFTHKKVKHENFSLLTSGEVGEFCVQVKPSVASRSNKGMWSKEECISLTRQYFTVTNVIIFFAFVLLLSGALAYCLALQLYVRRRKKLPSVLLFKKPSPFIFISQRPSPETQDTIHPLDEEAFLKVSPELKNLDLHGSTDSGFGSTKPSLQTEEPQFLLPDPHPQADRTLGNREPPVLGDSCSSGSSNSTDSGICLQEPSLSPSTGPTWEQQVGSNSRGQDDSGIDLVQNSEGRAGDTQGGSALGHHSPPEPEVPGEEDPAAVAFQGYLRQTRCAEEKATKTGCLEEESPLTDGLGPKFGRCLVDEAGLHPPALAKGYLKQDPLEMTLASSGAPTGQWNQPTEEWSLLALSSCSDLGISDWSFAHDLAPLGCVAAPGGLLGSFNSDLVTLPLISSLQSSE
Method: (§1) Biolayer interferometry (BLI) was applied to analyze peptide–receptor protein interactions. BLI was performed with a ForteBio Octet RED96e System (Sartorius AG, Göttingen, Germany) by using high-precision streptavidin and biosensors. The biosensors were hydrated in a plate for 15 min and then loaded with 10 μg/mL recombinant receptor human IL-10Ra protein and incubated for 150 s. […] After the association step, the biosensor was shifted to the dissociation buffer, phosphate-buffered saline (PBS) with 0.05% Tween20, for dissociation. Dissociation was recorded until equilibrium was reached (120 s).
To measure the binding ability of the designed and negative control peptides (NM25, NK20, NK20a, and control scramble peptide CG20) to the receptor IL-10Ra in vitro, BLI experiments were performed. […] When binding with IL-10Ra, the association constant (ka) of NK20 and NK20a was 1.02 × 10^4 (1/Ms) and 8.14 × 10^3 (1/Ms), respectively. The ka values of the refined peptides were approximately 12-fold higher than that of NM25. […] The equilibrium dissociation constant (KD) of NK20a interactions with IL-1R1was approximately 2000 times greater than that with IL-10Ra, and the calculated dissociation constant of NK20a interactions with IL-1R1 was to be 5000 times greater than that with IL-10Ra interactions (Table 2). […] As a result, NK20a was used for further investigations in this study.
Fig. 3 BLI kinetic assays of the designed peptides binding to the receptor IL-10Ra. Wavelength shift curves show the association and dissociation of the designed peptides (a) NM25, (b) NK20, (c) NK20a, (d) CG20 binding to the IL-10 receptor, and (e) NK20a binding to a control receptor IL-1R1 at various concentrations. Dissociation was recorded at 120 s after the binding started (black dotted line).

IL-1R1 = target: T2, IL-1R1 (Homo sapiens, UniProt P14778); experiment: Biolayer interferometry kinetic assay, binding to control receptor IL-1R1; details: read-out: ka (association constant)
T2 sequence (P14778 18-569): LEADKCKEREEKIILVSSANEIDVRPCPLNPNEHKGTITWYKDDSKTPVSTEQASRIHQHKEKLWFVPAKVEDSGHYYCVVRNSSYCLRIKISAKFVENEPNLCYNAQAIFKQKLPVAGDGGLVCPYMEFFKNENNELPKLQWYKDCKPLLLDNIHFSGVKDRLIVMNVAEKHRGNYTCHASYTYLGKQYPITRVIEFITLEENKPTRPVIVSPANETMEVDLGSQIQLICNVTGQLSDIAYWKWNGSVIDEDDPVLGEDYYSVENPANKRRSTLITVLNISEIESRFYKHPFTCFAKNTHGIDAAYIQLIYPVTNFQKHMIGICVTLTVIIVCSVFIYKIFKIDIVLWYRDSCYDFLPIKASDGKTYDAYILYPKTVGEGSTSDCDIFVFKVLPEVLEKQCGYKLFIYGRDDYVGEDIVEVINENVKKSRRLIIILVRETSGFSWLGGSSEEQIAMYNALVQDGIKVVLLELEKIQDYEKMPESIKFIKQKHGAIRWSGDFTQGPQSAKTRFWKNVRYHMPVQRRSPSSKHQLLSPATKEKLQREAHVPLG
Method: as §1
To measure the binding ability of the designed and negative control peptides (NM25, NK20, NK20a, and control scramble peptide CG20) to the receptor IL-10Ra in vitro, BLI experiments were performed. […] When binding with IL-10Ra, the association constant (ka) of NK20 and NK20a was 1.02 × 10^4 (1/Ms) and 8.14 × 10^3 (1/Ms), respectively. […] The equilibrium dissociation constant (KD) of NK20a interactions with IL-1R1was approximately 2000 times greater than that with IL-10Ra, and the calculated dissociation constant of NK20a interactions with IL-1R1 was to be 5000 times greater than that with IL-10Ra interactions (Table 2). […]
Fig. 3 BLI kinetic assays of the designed peptides binding to the receptor IL-10Ra. […] Dissociation was recorded at 120 s after the binding started (black dotted line).

NMLRNLRNAFSRVKTFFQMK [NK20a]
kon [1]: 8140 M⁻¹ s⁻¹
kon (IL-1R1): 18300 M⁻¹ s⁻¹
